Structures are written as SMILES.

The experiment deals with T1, wild-type FLT3 receptor (Homo sapiens, UniProt P36888).
T1 construct: host or cells: Baf3 (murine B cell lymphoma line), stably transfected
T1 sequence (P36888 27-993): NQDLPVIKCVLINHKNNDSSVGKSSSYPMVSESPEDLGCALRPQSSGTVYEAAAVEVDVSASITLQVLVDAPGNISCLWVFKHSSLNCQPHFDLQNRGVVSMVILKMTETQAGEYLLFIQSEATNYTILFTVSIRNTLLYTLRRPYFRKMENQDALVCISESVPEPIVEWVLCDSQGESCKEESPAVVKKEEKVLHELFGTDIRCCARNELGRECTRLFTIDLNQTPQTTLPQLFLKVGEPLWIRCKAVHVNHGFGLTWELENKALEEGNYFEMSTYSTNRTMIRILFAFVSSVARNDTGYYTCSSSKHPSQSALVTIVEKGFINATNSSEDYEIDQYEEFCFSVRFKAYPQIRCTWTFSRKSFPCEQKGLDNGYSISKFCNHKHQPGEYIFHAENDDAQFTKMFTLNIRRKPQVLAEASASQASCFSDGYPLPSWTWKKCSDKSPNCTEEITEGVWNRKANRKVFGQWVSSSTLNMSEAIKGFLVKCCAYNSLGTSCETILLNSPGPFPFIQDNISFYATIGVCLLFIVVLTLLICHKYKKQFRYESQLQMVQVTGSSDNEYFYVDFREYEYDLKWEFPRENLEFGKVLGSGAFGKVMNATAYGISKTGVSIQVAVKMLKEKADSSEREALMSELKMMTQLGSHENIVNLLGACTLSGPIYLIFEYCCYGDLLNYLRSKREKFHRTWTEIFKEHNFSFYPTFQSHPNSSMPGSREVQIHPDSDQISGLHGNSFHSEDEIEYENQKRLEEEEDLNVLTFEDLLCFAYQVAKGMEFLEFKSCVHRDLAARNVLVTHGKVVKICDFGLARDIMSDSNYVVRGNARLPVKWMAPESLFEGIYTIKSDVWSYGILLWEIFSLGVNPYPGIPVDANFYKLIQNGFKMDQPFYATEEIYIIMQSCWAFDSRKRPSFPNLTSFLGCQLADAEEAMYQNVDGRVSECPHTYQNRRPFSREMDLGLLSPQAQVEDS
The experiment can be described thus: Cell-based FLT3 receptor ELISA (FLT ligand-induced phosphorylation in Baf3 FLT3 cells). Conditions: 100 ng/mL Flt ligand, uncertainty ±20%. In short, it runs like this: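 Receptor phosphotyrosine measured by sandwich ELISA (anti-FLT3 capture, HRP anti-pTyr, luminescence) in FLT3-transfected murine Baf3 cells given 1 h compound pretreatment and 10 min 100 ng/mL FLT ligand after overnight low-serum starvation; triplicates, IC50 from nonlinear regression.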
(In general: ELISA stands for enzyme-linked immunosorbent assay.)
Broadly, the IC50 is the point on the concentration scale where inhibition reaches its midpoint. Take `CN(C)[C@@H]1CCN(c2ccc3c(C4CCN(C(=O)Nc5ccc(N6CCCC6)cc5)CC4)ncnc3c2)C1` [Example 149, (R)-4-[7-(3-Dimethylamino-pyrrolidin-1-yl)-quinazolin-4-yl]-piperidine-1-carboxylic acid (4-pyrrolidin-1-yl-phenyl)-amide]: half-maximal inhibition (IC50) required 3 nM. That is a single-digit nanomolar value.

`CCNC(=O)N1CCN(c2ccc3c(C4CCN(C(=O)Nc5ccc(N6CCCC6)cc5)CC4)ncnc3c2)CC1` [Compound 199, 4-{4-[1-(4-Pyrrolidin-1-yl-phenylcarbamoyl)-piperidin-4-yl]-quinazolin-7-yl}-piperazine-1-carboxylic acid ethylamide]: the IC50 worked out at 40 nM. For `CN1CCN(CCCOc2cc3ncnc(C4CCN(C(=O)Nc5ccc(N6CCOCC6)cc5)CC4)c3cc2F)CC1` [Compound 205, 4-{6-Fluoro-7-[3-(4-methyl-piperazin-1-yl)-propoxy]-quinazolin-4-yl}-piperidine-1-carboxylic acid (4-morpholin-4-yl-phenyl)-amide] the value was 6 nM; for `CC(=O)N1CCC(COc2ccc3c(C4CCN(C(=O)Nc5ccc(N6CCCC6)cc5)CC4)ncnc3c2)CC1` [Example 163, 4-[7-(1-Acetyl-piperidin-4-ylmethoxy)-quinazolin-4-yl]-piperidine-1-carboxylic acid (4-pyrrolidin-1-yl-phenyl)-amide], 118 nM; for `CN1CCCN(c2ccc3c(C4CCN(C(=O)Nc5ccc(N6CCOCC6)cc5)CC4)ncnc3c2)CC1` [Example 138, 4-[7-(4-Methyl-[1,4]diazepan-1-yl)-quinazolin-4-yl]-piperidine-1-carboxylic acid (4-morpholin-4-yl-phenyl)-amide], 107 nM.

For the compound `O=C(Nc1ccc(N2CCCC2)cc1)N1CCC(c2ncnc3cc(OCCO)ccc23)CC1` [Example 169, 4-[7-(2-Hydroxy-ethoxy)-quinazolin-4-yl]-piperidine-1-carboxylic acid (4-pyrrolidin-1-yl-phenyl)-amide], 2 nM corresponded to half-maximal inhibition (IC50).

In turn, `COc1cc2ncnc(C3CCN(C(=O)Nc4ccc5[nH]ccc5c4)CC3)c2cc1OC` [Example 23, 4-(6,7-Dimethoxy-quinazolin-4-yl)-piperidine-1-carboxylic acid (1H-indol-5-yl)-amide] registered an IC50 of 900 nM.

`O=C(Nc1ccc(N2CCCC2)cc1)N1CCC(c2ncnc3cc(Oc4cccnc4)ccc23)CC1` [Example 174, 4-[7-(Pyridin-3-yloxy)-quinazolin-4-yl]-piperidine-1-carboxylic acid (4-pyrrolidin-1-yl-phenyl)-amide]: the IC50 turned out to be 130 nM. Consider `O=C(Nc1ccc(N2CCCC2)cc1)N1CCC(c2ncnc3cc(O[C@H]4CCOC4)ccc23)CC1` [Compound 190, (S)-4-[7-(Tetrahydro-furan-3-yloxy)-quinazolin-4-yl]-piperidine-1-carboxylic acid (4-pyrrolidin-1-yl-phenyl)-amide], for which the midpoint of inhibition, the IC50, lay at 109 nM. The result for `CC(=O)N1CCN(c2ccc3c(C4CCN(C(=O)Nc5ccc(N6CCCC6)cc5)CC4)ncnc3c2)CC1` [Example 166, 4-[7-(4-Acetyl-piperazin-1-yl)-quinazolin-4-yl]-piperidine-1-carboxylic acid (4-pyrrolidin-1-yl-phenyl)-amide] reads 16 nM; that for `CN1CCN(CCCOc2ccc3c(C4CCN(C(=O)Nc5ccc(N6CCCC6)cc5)CC4)ncnc3c2)CC1` [Example 158, 4-{7-[3-(4-Methyl-piperazin-1-yl)-propoxy]-quinazolin-4-yl}-piperidine-1-carboxylic acid (4-pyrrolidin-1-yl-phenyl)-amide], 0.4 nM; that for `O=C(Nc1ccc(N2CCOCC2)cc1)N1CCC(c2ncnc3cc(N4CCNC4=O)ccc23)CC1` [Compound 197, 4-[7-(2-Oxo-imidazolidin-1-yl)-quinazolin-4-yl]-piperidine-1-carboxylic acid (4-morpholin-4-yl-phenyl)-amide], 78 nM.

With `O=C(Nc1ccc(N2CCOCC2)cc1)N1CCC(c2ncnc3cc(N4CCOCC4)ccc23)CC1` [Example 145, 4-(7-Morpholin-4-yl-quinazolin-4-yl)-piperidine-1-carboxylic acid (4-morpholin-4-yl-phenyl)-amide], the half-maximal inhibitory concentration (IC50) is 14 nM. The result for `CN1CCN(c2ccc3c(C4CCN(C(=O)Nc5ccc(N6CCCC6)cc5)CC4)ncnc3c2)CC1` [Example 159, 4-[7-(4-Methyl-piperazin-1-yl)-quinazolin-4-yl]-piperidine-1-carboxylic acid (4-pyrrolidin-1-yl-phenyl)-amide] reads 6 nM; that for `CS(=O)(=O)N1CCN(CCCOc2ccc3c(C4CCN(C(=O)Nc5ccc(N6CCCC6)cc5)CC4)ncnc3c2)CC1` [Example 164, 4-{7-[3-(4-Methanesulfonyl-piperazin-1-yl)-propoxy]-quinazolin-4-yl}-piperidine-1-carboxylic acid (4-pyrrolidin-1-yl-phenyl)-amide], 11 nM.

Regarding `O=C(Nc1ccc(N2CCOCC2)cc1)N1CCC(c2ncnc3cc(OCCN4CCC[C@H]4CO)ccc23)CC1` [Example 153, (S)-4-{7-[2-(2-Hydroxymethyl-pyrrolidin-1-yl)-ethoxy]-quinazolin-4-yl}-piperidine-1-carboxylic acid (4-morpholin-4-yl-phenyl)-amide], the IC50 turned out to be 110 nM. This IC50 lies about 10-fold higher than the previous one. For `CNC(=O)C1CCN(c2ccc3c(C4CCN(C(=O)Nc5ccc(N6CCCC6)cc5)CC4)ncnc3c2)CC1` [Example 155, 4-[7-(4-Carboxylic acid methylamide-piperidin-1-yl)-quinazolin-4-yl]-piperidine-1-carboxylic acid (4-pyrrolidin-1-yl-phenyl)-amide] the value was 0.4 nM; for `CC(=O)N1CC[C@@H](Oc2ccc3c(C4CCN(C(=O)Nc5ccc(N6CCCC6)cc5)CC4)ncnc3c2)C1` [Example 154, (R)-4-[7-(1-Acetyl-pyrrolidin-3-yloxy)-quinazolin-4-yl]-piperidine-1-carboxylic acid (4-pyrrolidin-1-yl-phenyl)-amide], 2 nM. For `CC(=O)N1CC(Oc2ccc3c(C4CCN(C(=O)Nc5ccc(N6CCCC6)cc5)CC4)ncnc3c2)C1` [Example 170, 4-[7-(1-Acetyl-azetidin-3-yloxy)-quinazolin-4-yl]-piperidine-1-carboxylic acid (4-pyrrolidin-1-yl-phenyl)-amide] the value was 4 nM; for `CN(C)C(=O)N1CCN(CCCOc2ccc3c(C4CCN(C(=O)Nc5ccc(N6CCCC6)cc5)CC4)ncnc3c2)CC1` [Example 165, 4-(3-{4-[1-(4-Pyrrolidin-1-yl-phenylcarbamoyl)-piperidin-4-yl]-quinazolin-7-yloxy}-propyl)-piperazine-1-carboxylic acid dimethylamide], 4 nM; for `CN(C)C(=O)N1CCN(c2ccc3c(C4CCN(C(=O)Nc5ccc(N6CCOCC6)cc5)CC4)ncnc3c2)CC1` [Example 143, 4-{4-[1-(4-Morpholin-4-yl-phenylcarbamoyl)-piperidin-4-yl]-quinazolin-7-yl}-piperazine-1-carboxylic acid dimethylamide], 1 nM. For `O=C(Nc1ccc(N2CCCC2)cc1)N1CCC(c2ncnc3cc(N4CCN(c5ncccn5)CC4)ccc23)CC1` [Compound 193, 4-[7-(4-Pyrimidin-2-yl-piperazin-1-yl)-quinazolin-4-yl]-piperidine-1-carboxylic acid (4-pyrrolidin-1-yl-phenyl)-amide] the value was 3 nM; for `O=C(Nc1ccc(N2CCCC2)cc1)N1CCC(c2ncnc3cc(NCCO)ccc23)CC1` [Example 175, 4-[7-(2-Hydroxy-ethylamino)-quinazolin-4-yl]-piperidine-1-carboxylic acid (4-pyrrolidin-1-yl-phenyl)-amide], 6 nM. In turn, `CC(C)Oc1ccc(NC(=O)N2CCC(c3ncnc4ccc(N5CCN(C)CC5)cc34)CC2)cc1` [Example 131, 4-[6-(4-Methyl-piperazin-1-yl)-quinazolin-4-yl]-piperidine-1-carboxylic acid (4-isopropoxy-phenyl)-amide] gave an IC50 of 226 nM. Compound `COc1cc2ncnc(C3CCN(C(=O)Nc4ccc(OC5CCC5)nc4)CC3)c2cc1OC` [Example 17, 4-(6,7-Dimethoxy-quinazolin-4-yl)-piperidine-1-carboxylic acid (6-cyclobutoxy-pyridin-3-yl)-amide] came in with a concentration for half-maximal inhibition (IC50) of 292 nM. This IC50 and that of the compound before are within 1.5-fold of each other.

For the compound `CN1CCN(CCOc2ccc3c(C4CCN(C(=O)Nc5ccc(N6CCCC6)cc5)CC4)ncnc3c2)CC1` [Example 157, 4-{7-[2-(4-Methyl-piperazin-1-yl)-ethoxy]-quinazolin-4-yl}-piperidine-1-carboxylic acid (4-pyrrolidin-1-yl-phenyl)-amide], the IC50 was found to be 16 nM.

For the origin of these results see patent US20070004660A1, “Synergistic Modulation of Flt3 Kinase Using Alkylquinolines and Alkylquinazolines” (priority 2005, published 2007).
